Measurements from patent publication US20200283742A1, “METHOD FOR IMPROVING ACTIVITY OF PET-DEGRADING ENZYME BY USING ADDITIVE [As Amended]” (KEIO UNIVERSITY, priority 2017, published 2020).

Key:
PETase [1] = biological target: T1, PETase (Piscinibacter sakaiensis, UniProt A0A0K8P6T7); experiment: PET-hydrolyzing activity of PETase on PET film in presence of surfactant (amount of degradation product MHET by HPLC); type: biochemical, Ideonella sp. No. 201-F6 strain; conditions: for PET-hydrolyzing activity compared with control (FIG. 2): surfactant 0.01% (w/v), pre-incubation 30° C. 1 hour, reaction 3 hours; for Relative activity: 0.01% SDS vs control
T1 construct: made in house; host or cells: Escherichia coli BL21 Codon Plus (DE3) RIPL
T1 sequence (A0A0K8P6T7 28-290): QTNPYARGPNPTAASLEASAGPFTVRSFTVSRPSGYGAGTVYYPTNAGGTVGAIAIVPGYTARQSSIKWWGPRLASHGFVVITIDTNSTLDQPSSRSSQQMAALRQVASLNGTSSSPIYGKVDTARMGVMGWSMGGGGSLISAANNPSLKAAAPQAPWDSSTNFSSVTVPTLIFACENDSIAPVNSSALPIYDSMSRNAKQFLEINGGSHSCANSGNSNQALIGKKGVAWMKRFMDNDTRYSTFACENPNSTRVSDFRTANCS
Procedure: In addition to the optimal conditions, a surfactant was added in a concentration of 0.001 to 0.01 (w/v) %, and the activity was then measured. As surfactants, six types of surfactants, namely. [A] Sodium Cholate (SC), [B] 3-[(3-Cholamidopropyl)dimethylammonio]propanesulfonate (CHAPS), [C] Sodium dodecyl sulfate (SDS), [D] Octylphenol ethoxylate (Triton X-114), [E] Polysorbate 80 (Tween 80), [F] and Dodecyltrimethylammoniumu chloride (DTMA-Cl), were used (FIG. 1). The surfactant, a buffer and a film were added to the reaction system, and the obtained mixture was then pre-incubated at 30° C. for 1 hour. Thereafter, the concentration of the enzyme was set at 50 nM, the film area was set at 3.39 cm^2/mL, and the reaction was carried out for 3 hours.
A system, to which no surfactants were added, was used as a control.
The film area was changed, and the enzyme concentration was set at 50 nM or 500 nM, and thereafter, the activity was measured under the optimal conditions and in the presence of 0.01(v/v) % SDS. Moreover, a comparison was made regarding the case of setting the enzyme concentration at 50 nM and the amount of the degradation product (monohydroxyethyl terephthalate (MHET)) depending on the reaction time.
The amount of the degradation product was measured by reverse phase high performance liquid chromatography (HPLC) in accordance with the method described in International Publication WO 2015/025861.
The pre-incubation time after addition of SDS was set at 0 or 1 hour, the reaction time was set at 1 hour, the enzyme concentration was set at […], and the film area was set at 3.39 cm^2/mL. Thereafter, a comparison was made in terms of the activity under the optimal conditions.
The enzyme concentration was set at 500 nM, the SDS concentration and the film area were changed, and the activity under the optimal conditions was then measured.

PETase [2] = biological target: T1, PETase; experiment: pNPB (p-nitrophenyl-butyrate)-hydrolyzing activity; type: biochemical, Ideonella sp. No. 201-F6 strain; conditions: 0.01 (w/v) % SDS; enzyme 250 nM; substrate pNPB
Procedure: In the following examples, the activity of PETase (PET-hydrolyzing activity) was measured using, as indicators, the amount of a degradation product and pNPB (p-nitrophenyl-butyrate)-hydrolyzing activity. Hereafter, a method of measuring pNPB (p-nitrophenyl-butyrate)-hydrolyzing activity is described.
pNPB used as an artificial substrate in the measurement of esterase activity is hydrolyzed into 1-butanoic acid and p-nitrophenol (pNP).
The pNPB-hydrolyzing activity immediately after purification of the enzyme was measured. The composition of a reaction solution is shown in Table 1. pNPB was dissolved in dimethyl sulfoxide (DMSO). The enzyme was mixed with a buffer, and the obtained mixture was then incubated at 30° C. for 30 minutes. Thereafter, the substrate was added to the reaction mixture, and a change in the absorbance at 425 nm for 1 minute was measured three times. The inclination (ΔAbs) of the measured absorbance change was applied to the following equation to obtain catalyst turnover frequency.
TOF: Catalyst turnover frequency; ε: Molar absorption coefficient; c: Enzyme concentration; 1: Thickness of solution layer; Δt: Reaction time.
The p-nitrophenyl-butyrate(pNPB)-hydrolyzing activity was measured in the presence of 0.01 (w/v) % SDS, in addition to the conditions shown in Table 1.

PETase [3] = biological target: T1, PETase; experiment: Amount of enzyme adsorbed on PET film (SDS-PAGE); parameters: species or system Ideonella sp. No. 201-F6 strain; conditions: SDS 0.01 to 0.04 (w/v) %; enzyme 500 nM; pre-incubation 1 hour; reaction 3 hours; film area 1.13 cm^2/mL
Procedure: The amount of the enzyme adsorbed on the film was observed under conditions in which the activity was changed by addition of a surfactant. SDS was added to the reaction system to result in a concentration of 0.01 (w/v) % to 0.04 (w/v) %, in addition to conditions of an enzyme concentration of 500 nM, a pre-incubation time of 1 hour, a reaction time of 3 hours, and a film area of 1.13 cm^2/mL. After completion of the reaction, the film was removed using tweezers, and was then rinsed with distilled water. The film was placed on the lid of a 1.5-mL tube, and thereafter, 10 μL of an SDS-PAGE sample buffer was added thereto. After that, the resultant was left at rest for 10 minutes, and was then centrifuged. The thus centrifuged solution was subjected to SDS-PAGE. Moreover, in addition to the conditions without addition of surfactants, a comparison was made with conditions including addition of DTMA-Cl that was a cationic surfactant.

[4] = enzyme 50 nM, film area 3.39 cm^2/mL
[5] = enzyme 50 nM, film area 1.13 cm^2/mL
[6] = enzyme 50 nM, film area 2.26 cm^2/mL
[7] = enzyme 50 nM, film area 5.65 cm^2/mL
[8] = enzyme 50 nM, film area 9.04 cm^2/mL
[9] = enzyme 50 nM, film area 11.3 cm^2/mL
[10] = enzyme 500 nM, film area 1.13 cm^2/mL
[11] = enzyme 500 nM, film area 2.26 cm^2/mL
[12] = enzyme 500 nM, film area 3.39 cm^2/mL
[13] = enzyme 500 nM, film area 5.65 cm^2/mL
[14] = enzyme 500 nM, film area 9.04 cm^2/mL
[15] = enzyme 500 nM, film area 11.3 cm^2/mL

Polysorbate 80 [Tween 80]
PET-hydrolyzing activity compared with control (FIG. 2) (PETase [1]; [4]): the activity was found with the surfactants other than Tween 80 and DTMA-Cl

CCCCCCCCCCCCOS(=O)(=O)[O-].[Na+] [SDS, Sodium dodecyl sulfate]
Relative activity (PETase [1]; [5]): 2.47 fold
Relative activity (PETase [1]; [6]): 1.99 fold
Relative activity (PETase [1]; [4]): 1.86 fold
Relative activity (PETase [1]; [7]): 1.75 fold
Relative activity (PETase [1]; [8]): 1.99 fold
Relative activity (PETase [1]; [9]): 1.72 fold
Relative activity (PETase [1]; [10]): 2170 fold
Relative activity (PETase [1]; [11]): 50.6 fold
Relative activity (PETase [1]; [12]): 6.01 fold
Relative activity (PETase [1]; [13]): 3.58 fold
Relative activity (PETase [1]; [14]): 3.32 fold
Relative activity (PETase [1]; [15]): 3.11 fold
Activity relative to control (PETase [1]; addition of SDS, enzyme 50 nM, film area 1.13 cm^2/mL): approximately 2.5 times
Activity relative to control (PETase [1]; addition of SDS, enzyme 50 nM, film area 11.3 cm^2/mL): approximately 1.7 times
PET-hydrolyzing activity versus control (PETase [1]; addition of SDS, enzyme 500 nM): the activity was exhibited, although almost no activity was exhibited in the case of the control
Activity upon addition of 0.01% SDS (PETase [1]; [5]): 793 h⁻¹
Activity upon addition of 0.01% SDS (PETase [1]; [6]): 901 h⁻¹
Activity upon addition of 0.01% SDS (PETase [1]; [4]): 1020 h⁻¹
Activity upon addition of 0.01% SDS (PETase [1]; [7]): 1270 h⁻¹
Activity upon addition of 0.01% SDS (PETase [1]; [8]): 1680 h⁻¹
Activity upon addition of 0.01% SDS (PETase [1]; [9]): 1910 h⁻¹
Activity upon addition of 0.01% SDS (PETase [1]; [10]): 154 h⁻¹
Activity upon addition of 0.01% SDS (PETase [1]; [11]): 260 h⁻¹
Activity upon addition of 0.01% SDS (PETase [1]; [12]): 297 h⁻¹
Activity upon addition of 0.01% SDS (PETase [1]; [13]): 451 h⁻¹
Activity upon addition of 0.01% SDS (PETase [1]; [14]): 660 h⁻¹
Activity upon addition of 0.01% SDS (PETase [1]; [15]): 743 h⁻¹
Optimal SDS concentration (FIG. 6) (PETase [1]; enzyme 500 nM, film area of up to 5.65 cm^2/mL): 0.02 (w/v) %
Optimal SDS concentration (FIG. 6) (PETase [1]; enzyme 500 nM, film area of up to 11.3 cm^2/mL): 0.03 (w/v) %
Change over time in amount of PET degradation product / enzyme stability (FIG. 3) (PETase [1]; in presence of SDS, enzyme 50 nM, reaction of 3 hours): almost no activity decrease took place
Amount of degradation product depending on pre-incubation time (FIG. 5) (PETase [1]; pre-incubation after SDS addition 0 or 1 hour, reaction 1 hour, enzyme 50 nM, film area 3.39 cm^2/mL): the amount of a degradation product was changed depending on the pre-incubation time
PET-hydrolyzing activity compared with control (FIG. 2) (PETase [1]; [4]): approximately two times greater than the activity of the control
Reduction of pNPB-hydrolyzing activity after addition of SDS (FIG. 4) (PETase [2]): approximately 5%
Amount of enzyme (protein) adsorbed on film (FIG. 7) (PETase [3]): adsorption of a large amount of protein was confirmed

CCCCCCCCCCCC[N+](C)(C)C.[Cl-] [DTMA-Cl, Dodecyltrimethylammoniumu chloride]
PET-hydrolyzing activity compared with control (FIG. 2) (PETase [1]; [4]): the activity was significantly decreased
